“And” between values parts separate entries of the source, which are not always exact repeats. Identical values can stand only once.

Chain of purified recombinant human SMOX protein (Q9NWM0 whole entry): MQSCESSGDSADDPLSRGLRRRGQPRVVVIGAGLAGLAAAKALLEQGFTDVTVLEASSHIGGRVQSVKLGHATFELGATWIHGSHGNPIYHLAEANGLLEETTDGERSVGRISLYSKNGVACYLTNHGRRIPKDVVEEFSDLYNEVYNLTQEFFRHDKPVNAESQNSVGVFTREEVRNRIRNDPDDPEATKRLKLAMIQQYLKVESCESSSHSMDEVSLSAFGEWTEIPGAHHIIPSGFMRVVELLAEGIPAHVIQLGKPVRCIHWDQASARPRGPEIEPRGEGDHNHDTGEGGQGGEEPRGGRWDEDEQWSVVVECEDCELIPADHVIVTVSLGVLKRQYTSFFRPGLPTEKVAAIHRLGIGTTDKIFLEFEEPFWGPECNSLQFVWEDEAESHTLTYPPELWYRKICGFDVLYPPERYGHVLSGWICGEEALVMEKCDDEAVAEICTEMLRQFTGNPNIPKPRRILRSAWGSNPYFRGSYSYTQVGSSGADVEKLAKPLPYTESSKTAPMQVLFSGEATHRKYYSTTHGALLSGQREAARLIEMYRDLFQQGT

One series has as its system HCT116 cells. Briefly: CellTiter-Blue cell viability assay, HCT116. The series is classed as cell-based. To be noted: Homo sapiens, HCT-116, 24 h incubation. On the procedure: (§1) The human non-small cell lung carcinoma cell lines A549 (ATCC CCL-185) were maintained in RPMI 1640 medium containing 9% bovine calf serum, penicillin, and streptomycin at 37 °C, 5% CO2. For all experiments, cells were seeded and allowed to attach overnight. The medium was then aspirated and replaced with that containing polyamine PG analogs at the indicated concentrations. Cells were incubated for the times indicated at 37 °C, 5% CO2. The HCT 116 (ATCC CCL-247) human colorectal carcinoma cell lines were grown in McCoy’s 5 A medium (Thermo Fischer Scientific, Waltham, MA, USA), supplemented with 10% FBS at 37 °C with 5% CO2 in a humidified chamber.
(§2) The cytotoxicity of the HPG analogs was evaluated in HCT116 and A549 cells by the Promega CellTiter Blue Cell viability assay. The cells were seeded in 96-well plates at a density of four thousand cells/well 24 h before the polyamine treatment. The original medium was replaced with serial dilutions of the PG analogs in a cell culture medium and incubated for another 24 h. The mixture of 100 μL cell culture medium and 20 μL CellTiter Blue reagent was added into each well after the removal of the media with polyamines. After 2 h of incubation, the fluorescence intensity [FI] was measured at λex/λem = 560/590 nm by a microplate reader (Molecular Devices, San Jose, CA, USA). The relative cell viability (%) was calculated as [FI]treated/[FI]untreated × 100. Polyamine concentration, causing a 50% decrease in the cell viability, was defined as IC50 and auto-calculated in GraphPad Prism 9.0.0 (Prism 9, San Diego, CA, USA) with the dose–response analysis.
Background: The colour change of resazurin is a common sign of viable cells or microbes.
For the compound `CCCNCCCNC/C=C\CNCCCNCCC` [HPG-2, (Z)-N^1,N^1′-(but-2-ene-1,4-diyl)bis(N^3-propylpropane-1,3-diamine)], the IC50 is < 1 µM.

Consider `CCCCNCCCNC/C=C\CNCCCNCCCC` [HPG-3, (Z)-N^1,N^1′-(but-2-ene-1,4-diyl)bis(N^3-butylpropane-1,3-diamine)], for which the IC50 is 8 µM.

For `CCCCCNCCCNC/C=C\CNCCCNCCCCC` [HPG-4, (Z)-N^1,N^1′-(but-2-ene-1,4-diyl)bis(N^3-pentylpropane-1,3-diamine)], the IC50 was > 10 µM.

In turn, `CCCCCCNCCCNC/C=C\CNCCCNCCCCCC` [HPG-5, (Z)-N^1,N^1′-(but-2-ene-1,4-diyl)bis(N^3-hexylpropane-1,3-diamine)] came in with an IC50 of 8 µM.

Test system in another series: not listed separately
Put plainly: TEM imaging of self-assembled nanoparticles.
Conditions: not given
The series is classed as physicochemical. On the procedure:
A 10 µL volume of nanoparticle dispersion was meticulously placed on a plasma-treated copper grid (carbon-coated). After 5 min, the excess volume of nanoparticles was absorbed by a regular filter paper. The grid was then stained with 2% phosphotungstic acid (6 µL) for 1 min, and, similarly, the excess staining solution was absorbed by a regular filter paper. The grid was then allowed to dry in air for another 5 min. The image was captured under an FEI-Tecnai G2 transmission electron microscope (Hillsboro, OR, USA) at 80 kV, equipped with an AMT digital imaging system (Woburn, MA, USA).
Take `CCCCCNCCCNC/C=C\CNCCCNCCCCC` [HPG-4, (Z)-N^1,N^1′-(but-2-ene-1,4-diyl)bis(N^3-pentylpropane-1,3-diamine)]: the “average size obtained from TEM” value is reported as 6 nm.

Test system in another series: not listed separately
Put plainly: Hydrodynamic size and zeta potential of self-assembled nanoparticles (DLS). The series is classed as physicochemical. The note with it: DLS, self-assembled in aqueous solution. The protocol: To achieve self-assembly, each sample was dispersed in aqueous solution under sonication (Branson Ultrasonic, working frequency […] at room temperature) for 30 min. Thereafter, the sample was allowed to undergo self-assembly by keeping it undisturbed for another 30 min. The size and surface zeta potential of the self-assembled nanoparticles were analyzed using a Brookhaven NanoBrook (Holtsville, NY, USA) Omni particle size and zeta potential analyzer, respectively.
For the compound `CCCNCCCNC/C=C\CNCCCNCCC` [HPG-2, (Z)-N^1,N^1′-(but-2-ene-1,4-diyl)bis(N^3-propylpropane-1,3-diamine)], the PDI was 0.21.

Compound `CCCCNCCCNC/C=C\CNCCCNCCCC` [HPG-3, (Z)-N^1,N^1′-(but-2-ene-1,4-diyl)bis(N^3-butylpropane-1,3-diamine)] yielded a PDI of 0.064.

With `CCCCCNCCCNC/C=C\CNCCCNCCCCC` [HPG-4, (Z)-N^1,N^1′-(but-2-ene-1,4-diyl)bis(N^3-pentylpropane-1,3-diamine)], the PDI was determined as 0.15.

With `CCCCCCNCCCNC/C=C\CNCCCNCCCCCC` [HPG-5, (Z)-N^1,N^1′-(but-2-ene-1,4-diyl)bis(N^3-hexylpropane-1,3-diamine)], the PDI is 0.23.

The series is the same for the next values; noted with them: hydrodynamic size by DLS, self-assembled in aqueous solution.
With `CCCNCCCNC/C=C\CNCCCNCCC` [HPG-2, (Z)-N^1,N^1′-(but-2-ene-1,4-diyl)bis(N^3-propylpropane-1,3-diamine)], the “Particle Size” value was found to be 173 ± 7 nm.

As to `CCCCNCCCNC/C=C\CNCCCNCCCC` [HPG-3, (Z)-N^1,N^1′-(but-2-ene-1,4-diyl)bis(N^3-butylpropane-1,3-diamine)], the “Particle Size” value came to 186 ± 3 nm.

For `CCCCCNCCCNC/C=C\CNCCCNCCCCC` [HPG-4, (Z)-N^1,N^1′-(but-2-ene-1,4-diyl)bis(N^3-pentylpropane-1,3-diamine)], the “Particle Size” value is 174 nm and 174 ± 3 nm.

On to `CCCCCCNCCCNC/C=C\CNCCCNCCCCCC` [HPG-5, (Z)-N^1,N^1′-(but-2-ene-1,4-diyl)bis(N^3-hexylpropane-1,3-diamine)], for which the “Particle Size” value is 158 ± 4 nm.

The same series, now with this note: hydrodynamic size by DLS, self-assembled in aqueous solution; listed as HPG2.
Consider `CCCNCCCNC/C=C\CNCCCNCCC` [HPG-2, (Z)-N^1,N^1′-(but-2-ene-1,4-diyl)bis(N^3-propylpropane-1,3-diamine)], for which the “Particle Size” value is “around 173 nm”.

The same series, now with this note: self-assembled in aqueous solution.
`CCCNCCCNC/C=C\CNCCCNCCC` [HPG-2, (Z)-N^1,N^1′-(but-2-ene-1,4-diyl)bis(N^3-propylpropane-1,3-diamine)]: the “Zeta Potential” value stood at 27 mV.

As to `CCCCNCCCNC/C=C\CNCCCNCCCC` [HPG-3, (Z)-N^1,N^1′-(but-2-ene-1,4-diyl)bis(N^3-butylpropane-1,3-diamine)], the “Zeta Potential” value worked out at 24 mV.

`CCCCCNCCCNC/C=C\CNCCCNCCCCC` [HPG-4, (Z)-N^1,N^1′-(but-2-ene-1,4-diyl)bis(N^3-pentylpropane-1,3-diamine)]: the “Zeta Potential” value is reported as 15 mV.

Regarding `CCCCCCNCCCNC/C=C\CNCCCNCCCCCC` [HPG-5, (Z)-N^1,N^1′-(but-2-ene-1,4-diyl)bis(N^3-hexylpropane-1,3-diamine)], the “Zeta Potential” value came to 16 mV.

Another series addresses purified recombinant human SMOX protein (Homo sapiens, UniProt Q9NWM0). Put plainly: SMOX activity assay (luminol-based chemiluminescence). The format is biochemical. To be noted: purified recombinant human SMOX, pH 8.0, 37 °C. On the procedure:
SMOX activity was measured using a chemiluminescent enzyme-based assay, detecting the formation of H2O2 in the presence of HPG analogs as the substrate, as described. To measure the activity of these polyamines against SMOX, the enzyme (300 ng) in 0.083 M glycine buffer (pH 8.0) and the inhibitor (0–250 µM) were added to the luminol-HRP master mix and incubated at 37 °C for 2 min. PG was then added to the reaction mixture at a final concentration of 250 µM, vortexed for 3 s, and chemiluminescence was integrated over 40 s. Data were averaged and normalized to the blank reaction (no inhibitor) as % SMOX activity. Inactivated SMOX served as a negative control and was accounted for in the calculations.
On to `CCCCCCNCCCNC/C=C\CNCCCNCCCCCC` [HPG-5, (Z)-N^1,N^1′-(but-2-ene-1,4-diyl)bis(N^3-hexylpropane-1,3-diamine)], for which the IC50 came to 90 µM.

The test system of the next series is A549 cells. Put plainly: CellTiter-Blue cell viability assay, A549. The format is cell-based. To be noted: Homo sapiens, 24 h incubation. The protocol:
as §1, §2
Take `CCCNCCCNC/C=C\CNCCCNCCC` [HPG-2, (Z)-N^1,N^1′-(but-2-ene-1,4-diyl)bis(N^3-propylpropane-1,3-diamine)]: the IC50 is < 1 µM.

Consider `CCCCNCCCNC/C=C\CNCCCNCCCC` [HPG-3, (Z)-N^1,N^1′-(but-2-ene-1,4-diyl)bis(N^3-butylpropane-1,3-diamine)], for which the IC50 was > 10 µM.

With `CCCCCNCCCNC/C=C\CNCCCNCCCCC` [HPG-4, (Z)-N^1,N^1′-(but-2-ene-1,4-diyl)bis(N^3-pentylpropane-1,3-diamine)], the IC50 is 10 µM.

`CCCCCCNCCCNC/C=C\CNCCCNCCCCCC` [HPG-5, (Z)-N^1,N^1′-(but-2-ene-1,4-diyl)bis(N^3-hexylpropane-1,3-diamine)] gave an IC50 of 7 µM.

By IC50 is commonly meant the concentration that inhibits the measured activity by half.

The values are drawn from article PMC9032695, “Self-Assembled Alkylated Polyamine Analogs as Supramolecular Anticancer Agents” (Molecules, 2022).
